As usually defined, the inhibition is the change of the read-out against control, counted positive when it falls.

Molecules are shown by their SMILES.

Results on 3 compounds are retold here after ChEMBL document CHEMBL4052759, “Discovery of DS79182026: A potent orally active hepcidin production inhibitor” (Bioorg Med Chem Lett, 2017).

For assay [1], the target named is RAC-beta serine/threonine-protein kinase (Homo sapiens) (UniProt P31751). The assay can be described thus: Inhibition of AKT2 (unknown origin) at 0.49 uM relative to control.
The target in assay [2] is Serine/threonine-protein kinase 24 (Homo sapiens) (UniProt Q9Y6E0). In words: Inhibition of MST3 (unknown origin) at 0.49 uM relative to control.
The test system of assay [3] is Mitogen-activated protein kinase 14 (Homo sapiens), Q16539 [T106M]. The assay can be described thus: Inhibition of SAPK2a T106M mutant (unknown origin) at 0.49 uM relative to control.
Sequence of Mitogen-activated protein kinase 14 (Homo sapiens), Q16539 [T106M] (Q16539 whole entry T106M): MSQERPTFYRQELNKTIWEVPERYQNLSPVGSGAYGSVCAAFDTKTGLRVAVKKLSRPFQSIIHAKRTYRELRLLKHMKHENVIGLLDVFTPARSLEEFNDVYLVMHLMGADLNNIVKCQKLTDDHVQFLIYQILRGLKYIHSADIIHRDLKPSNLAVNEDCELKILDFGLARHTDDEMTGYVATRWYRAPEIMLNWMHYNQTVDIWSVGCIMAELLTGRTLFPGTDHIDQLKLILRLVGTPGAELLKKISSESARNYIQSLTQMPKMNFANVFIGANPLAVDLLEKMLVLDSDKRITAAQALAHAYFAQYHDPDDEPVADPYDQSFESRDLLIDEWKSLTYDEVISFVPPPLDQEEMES
Assay [4] deals with Platelet-derived growth factor receptor beta (Homo sapiens) (UniProt P09619). The assay can be described thus: Inhibition of PDGFR beta (unknown origin) at 0.49 uM relative to control.
The target of assay [5] is Vascular endothelial growth factor receptor 1 (Homo sapiens) (UniProt P17948). The assay can be described thus: Inhibition of FLT1 (unknown origin) at 0.49 uM relative to control.
Sequence of Vascular endothelial growth factor receptor 1 (Homo sapiens) (P17948 whole entry): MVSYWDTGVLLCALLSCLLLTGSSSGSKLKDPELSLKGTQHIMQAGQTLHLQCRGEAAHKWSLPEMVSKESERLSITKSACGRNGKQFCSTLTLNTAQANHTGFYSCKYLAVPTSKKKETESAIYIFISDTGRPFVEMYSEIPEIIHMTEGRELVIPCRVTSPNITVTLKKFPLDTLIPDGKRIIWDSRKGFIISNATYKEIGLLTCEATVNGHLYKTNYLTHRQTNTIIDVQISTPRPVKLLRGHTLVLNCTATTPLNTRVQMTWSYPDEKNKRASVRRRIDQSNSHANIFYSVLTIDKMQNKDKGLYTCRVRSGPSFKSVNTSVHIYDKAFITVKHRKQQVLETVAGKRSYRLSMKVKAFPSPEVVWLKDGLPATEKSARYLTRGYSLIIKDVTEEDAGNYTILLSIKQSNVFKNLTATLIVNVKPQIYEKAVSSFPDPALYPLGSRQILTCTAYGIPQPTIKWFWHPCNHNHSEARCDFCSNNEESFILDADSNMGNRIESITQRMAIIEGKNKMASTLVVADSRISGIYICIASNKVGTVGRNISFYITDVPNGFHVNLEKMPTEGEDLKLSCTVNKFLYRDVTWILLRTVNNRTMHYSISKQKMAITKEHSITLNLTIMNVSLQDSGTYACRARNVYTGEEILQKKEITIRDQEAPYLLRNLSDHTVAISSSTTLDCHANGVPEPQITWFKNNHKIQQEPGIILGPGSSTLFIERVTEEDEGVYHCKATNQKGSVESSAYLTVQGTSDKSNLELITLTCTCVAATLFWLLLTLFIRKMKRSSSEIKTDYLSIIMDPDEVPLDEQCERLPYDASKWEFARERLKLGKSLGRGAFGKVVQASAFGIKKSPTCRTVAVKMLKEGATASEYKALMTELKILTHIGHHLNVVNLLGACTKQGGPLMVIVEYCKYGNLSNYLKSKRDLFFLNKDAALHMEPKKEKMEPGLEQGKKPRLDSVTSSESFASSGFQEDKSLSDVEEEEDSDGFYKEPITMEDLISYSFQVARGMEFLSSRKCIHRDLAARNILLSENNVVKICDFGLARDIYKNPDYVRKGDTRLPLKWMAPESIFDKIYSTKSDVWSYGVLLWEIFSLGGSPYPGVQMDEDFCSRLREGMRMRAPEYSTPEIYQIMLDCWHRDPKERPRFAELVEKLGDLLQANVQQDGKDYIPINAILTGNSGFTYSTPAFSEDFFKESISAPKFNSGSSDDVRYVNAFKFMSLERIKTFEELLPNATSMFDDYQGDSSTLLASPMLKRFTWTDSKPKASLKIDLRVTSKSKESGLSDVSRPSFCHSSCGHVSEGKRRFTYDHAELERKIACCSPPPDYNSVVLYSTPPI
Assay [6] has as its target ALK tyrosine kinase receptor (Homo sapiens) (UniProt Q9UM73). The assay can be described thus: Inhibition of ALK (unknown origin) at 0.49 uM relative to control.
Assay [7] deals with Dual specificity tyrosine-phosphorylation-regulated kinase 4 (Homo sapiens) (UniProt Q9NR20). In words: Inhibition of DYRK4 (unknown origin) at 0.49 uM relative to control.
Assay [8] has as its target Ribosomal protein S6 kinase alpha-3 (Homo sapiens) (UniProt P51812). In words: Inhibition of RSK2 (unknown origin) at 0.49 uM relative to control.
Assay [9] addresses Proto-oncogene tyrosine-protein kinase ROS (Homo sapiens) (UniProt P08922). The assay can be described thus: Inhibition of ROS (unknown origin) at 0.49 uM relative to control.
Assay [10] concerns the target Serine/threonine-protein kinase pim-2 (Homo sapiens) (UniProt Q9P1W9). In words: Inhibition of PIM2 (unknown origin) at 0.49 uM relative to control.
Assay [11] has as its target Testis-specific serine/threonine-protein kinase 1 (Homo sapiens) (UniProt Q9BXA7). The assay can be described thus: Inhibition of TSSK1 (unknown origin) at 0.49 uM relative to control.
For assay [12], the target named is MAP kinase-interacting serine/threonine-protein kinase 2 (Homo sapiens) (UniProt Q9HBH9). The assay can be described thus: Inhibition of MNK2 (unknown origin) at 0.49 uM relative to control.
Assay [13] deals with Serine/threonine-protein kinase Nek9 (Homo sapiens) (UniProt Q8TD19). The assay can be described thus: Inhibition of NEK9 (unknown origin) at 0.49 uM relative to control.
For assay [14], the target named is Inhibitor of nuclear factor kappa-B kinase subunit epsilon (Homo sapiens) (UniProt Q14164). In words: Inhibition of IKBKE (unknown origin) at 0.49 uM relative to control.
Assay [15] relates to Platelet-derived growth factor receptor alpha (Homo sapiens), P16234 [D842V]. The assay can be described thus: Inhibition of PDGFRA D842V mutant (unknown origin) at 0.49 uM relative to control.
For assay [16], the target named is T1, cGMP-dependent protein kinase 1 (Homo sapiens) (UniProt Q13976).
T1 sequence (whole entry): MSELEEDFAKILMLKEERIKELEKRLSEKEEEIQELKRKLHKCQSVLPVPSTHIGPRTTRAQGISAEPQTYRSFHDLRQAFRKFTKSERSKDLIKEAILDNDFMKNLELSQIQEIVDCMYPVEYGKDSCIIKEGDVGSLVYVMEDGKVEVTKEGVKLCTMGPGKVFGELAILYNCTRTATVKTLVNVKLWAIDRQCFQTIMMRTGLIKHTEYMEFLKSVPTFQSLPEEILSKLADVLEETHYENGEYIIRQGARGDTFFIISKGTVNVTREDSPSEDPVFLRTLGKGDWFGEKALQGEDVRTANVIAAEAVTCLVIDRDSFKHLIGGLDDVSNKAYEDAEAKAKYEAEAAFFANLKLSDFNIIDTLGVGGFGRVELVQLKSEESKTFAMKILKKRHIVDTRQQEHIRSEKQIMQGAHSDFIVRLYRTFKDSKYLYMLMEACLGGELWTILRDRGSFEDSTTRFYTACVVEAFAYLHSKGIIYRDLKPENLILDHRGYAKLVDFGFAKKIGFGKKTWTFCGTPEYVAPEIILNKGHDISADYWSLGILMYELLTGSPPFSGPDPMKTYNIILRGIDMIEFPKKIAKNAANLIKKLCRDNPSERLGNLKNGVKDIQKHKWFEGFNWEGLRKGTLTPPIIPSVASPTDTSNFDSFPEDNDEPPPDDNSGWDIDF
The assay can be described thus: Inhibition of PKG-alpha (unknown origin) at 0.49 uM relative to control.

Assay [17] concerns the target Protein kinase C theta type (Homo sapiens) (UniProt Q04759). The assay can be described thus: Inhibition of PKC-theta (unknown origin) at 0.49 uM relative to control.
Assay [18] has as its target Mitogen-activated protein kinase kinase kinase kinase 4 (Homo sapiens) (UniProt O95819). In words: Inhibition of HGK (unknown origin) at 0.078 uM relative to control.
The target of assay [19] is Mitogen-activated protein kinase 14 (Homo sapiens) (UniProt Q16539). In words: Inhibition of p38a (unknown origin) at 0.078 uM relative to control.
Assay [20] addresses Casein kinase I isoform delta (Homo sapiens) (UniProt P48730). In words: Inhibition of CK1-delta (unknown origin) at 0.078 uM relative to control.
Assay [21] deals with Casein kinase I isoform gamma-1 (Homo sapiens) (UniProt Q9HCP0). The assay can be described thus: Inhibition of CK1-gamma1 (unknown origin) at 0.45 uM relative to control.
In assay [22] the target is Testis-specific serine/threonine-protein kinase 1 (Homo sapiens) (UniProt Q9BXA7). In words: Inhibition of TSSK1 (unknown origin) at 0.45 uM relative to control.
Sequence of Testis-specific serine/threonine-protein kinase 1 (Homo sapiens) (Q9BXA7 whole entry): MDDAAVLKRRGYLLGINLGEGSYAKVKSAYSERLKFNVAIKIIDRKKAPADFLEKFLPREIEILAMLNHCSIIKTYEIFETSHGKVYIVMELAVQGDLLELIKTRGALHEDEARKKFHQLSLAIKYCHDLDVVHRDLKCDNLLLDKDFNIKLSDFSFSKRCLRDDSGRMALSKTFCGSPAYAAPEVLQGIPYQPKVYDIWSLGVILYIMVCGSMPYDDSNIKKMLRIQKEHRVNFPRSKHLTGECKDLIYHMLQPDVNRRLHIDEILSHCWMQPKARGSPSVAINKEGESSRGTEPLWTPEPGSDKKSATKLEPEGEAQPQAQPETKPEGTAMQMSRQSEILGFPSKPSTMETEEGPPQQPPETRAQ
For assay [23], the target named is Vascular endothelial growth factor receptor 3 (Homo sapiens) (UniProt P35916). In words: Inhibition of FLT4 (unknown origin) at 0.45 uM relative to control.
Assay [24] concerns the target Dual specificity protein kinase CLK3 (Homo sapiens) (UniProt P49761). The assay can be described thus: Inhibition of CLK3 (unknown origin) at 0.45 uM relative to control.
Assay [25] has as its target Maternal embryonic leucine zipper kinase (Homo sapiens) (UniProt Q14680). In words: Inhibition of MELK (unknown origin) at 0.45 uM relative to control.
The target of assay [26] is Mitogen-activated protein kinase 1 (Homo sapiens) (UniProt P28482). The assay can be described thus: Inhibition of Erk2 (unknown origin) at 0.45 uM relative to control.
Sequence of Mitogen-activated protein kinase 1 (Homo sapiens) (P28482 whole entry): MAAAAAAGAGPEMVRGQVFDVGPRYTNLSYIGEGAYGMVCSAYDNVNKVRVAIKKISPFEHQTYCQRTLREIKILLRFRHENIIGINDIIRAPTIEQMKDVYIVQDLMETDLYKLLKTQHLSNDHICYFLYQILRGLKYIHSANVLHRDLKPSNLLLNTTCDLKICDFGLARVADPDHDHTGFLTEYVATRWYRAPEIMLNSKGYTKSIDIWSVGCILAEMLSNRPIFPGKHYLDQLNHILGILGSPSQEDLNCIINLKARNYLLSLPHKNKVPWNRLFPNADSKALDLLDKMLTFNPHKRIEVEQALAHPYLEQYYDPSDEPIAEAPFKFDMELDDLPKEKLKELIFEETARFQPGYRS
The target of assay [27] is Serine/threonine-protein kinase Nek6 (Homo sapiens) (UniProt Q9HC98). In words: Inhibition of NEK6 (unknown origin) at 0.45 uM relative to control.
Another assay relates to MAP4K2 (Homo sapiens). In words: Inhibition of GCK (unknown origin) at 0.45 uM relative to control.
The target in assay [28] is RAC-alpha serine/threonine-protein kinase (Homo sapiens) (UniProt P31749). In words: Inhibition of AKT1 (unknown origin) at 0.45 uM relative to control.
Assay [29] deals with RAC-gamma serine/threonine-protein kinase (Homo sapiens) (UniProt Q9Y243). In words: Inhibition of AKT3 (unknown origin) at 0.45 uM relative to control.
Assay [30] concerns the target SRSF protein kinase 3 (Homo sapiens) (UniProt Q9UPE1). The assay can be described thus: Inhibition of MSSK1 (unknown origin) at 0.45 uM relative to control.

Sequence of Serine/threonine-protein kinase pim-2 (Homo sapiens) (Q9P1W9 whole entry, looked up): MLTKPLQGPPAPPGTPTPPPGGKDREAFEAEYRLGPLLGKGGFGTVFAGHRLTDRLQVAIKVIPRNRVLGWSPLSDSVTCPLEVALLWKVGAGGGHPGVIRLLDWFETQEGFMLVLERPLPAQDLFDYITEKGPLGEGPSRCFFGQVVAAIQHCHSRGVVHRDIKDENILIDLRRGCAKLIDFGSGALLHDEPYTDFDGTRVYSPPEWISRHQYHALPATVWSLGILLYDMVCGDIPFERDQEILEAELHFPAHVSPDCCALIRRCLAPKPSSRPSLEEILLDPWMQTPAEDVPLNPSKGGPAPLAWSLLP
Sequence of Proto-oncogene tyrosine-protein kinase ROS (Homo sapiens) (P08922 whole entry): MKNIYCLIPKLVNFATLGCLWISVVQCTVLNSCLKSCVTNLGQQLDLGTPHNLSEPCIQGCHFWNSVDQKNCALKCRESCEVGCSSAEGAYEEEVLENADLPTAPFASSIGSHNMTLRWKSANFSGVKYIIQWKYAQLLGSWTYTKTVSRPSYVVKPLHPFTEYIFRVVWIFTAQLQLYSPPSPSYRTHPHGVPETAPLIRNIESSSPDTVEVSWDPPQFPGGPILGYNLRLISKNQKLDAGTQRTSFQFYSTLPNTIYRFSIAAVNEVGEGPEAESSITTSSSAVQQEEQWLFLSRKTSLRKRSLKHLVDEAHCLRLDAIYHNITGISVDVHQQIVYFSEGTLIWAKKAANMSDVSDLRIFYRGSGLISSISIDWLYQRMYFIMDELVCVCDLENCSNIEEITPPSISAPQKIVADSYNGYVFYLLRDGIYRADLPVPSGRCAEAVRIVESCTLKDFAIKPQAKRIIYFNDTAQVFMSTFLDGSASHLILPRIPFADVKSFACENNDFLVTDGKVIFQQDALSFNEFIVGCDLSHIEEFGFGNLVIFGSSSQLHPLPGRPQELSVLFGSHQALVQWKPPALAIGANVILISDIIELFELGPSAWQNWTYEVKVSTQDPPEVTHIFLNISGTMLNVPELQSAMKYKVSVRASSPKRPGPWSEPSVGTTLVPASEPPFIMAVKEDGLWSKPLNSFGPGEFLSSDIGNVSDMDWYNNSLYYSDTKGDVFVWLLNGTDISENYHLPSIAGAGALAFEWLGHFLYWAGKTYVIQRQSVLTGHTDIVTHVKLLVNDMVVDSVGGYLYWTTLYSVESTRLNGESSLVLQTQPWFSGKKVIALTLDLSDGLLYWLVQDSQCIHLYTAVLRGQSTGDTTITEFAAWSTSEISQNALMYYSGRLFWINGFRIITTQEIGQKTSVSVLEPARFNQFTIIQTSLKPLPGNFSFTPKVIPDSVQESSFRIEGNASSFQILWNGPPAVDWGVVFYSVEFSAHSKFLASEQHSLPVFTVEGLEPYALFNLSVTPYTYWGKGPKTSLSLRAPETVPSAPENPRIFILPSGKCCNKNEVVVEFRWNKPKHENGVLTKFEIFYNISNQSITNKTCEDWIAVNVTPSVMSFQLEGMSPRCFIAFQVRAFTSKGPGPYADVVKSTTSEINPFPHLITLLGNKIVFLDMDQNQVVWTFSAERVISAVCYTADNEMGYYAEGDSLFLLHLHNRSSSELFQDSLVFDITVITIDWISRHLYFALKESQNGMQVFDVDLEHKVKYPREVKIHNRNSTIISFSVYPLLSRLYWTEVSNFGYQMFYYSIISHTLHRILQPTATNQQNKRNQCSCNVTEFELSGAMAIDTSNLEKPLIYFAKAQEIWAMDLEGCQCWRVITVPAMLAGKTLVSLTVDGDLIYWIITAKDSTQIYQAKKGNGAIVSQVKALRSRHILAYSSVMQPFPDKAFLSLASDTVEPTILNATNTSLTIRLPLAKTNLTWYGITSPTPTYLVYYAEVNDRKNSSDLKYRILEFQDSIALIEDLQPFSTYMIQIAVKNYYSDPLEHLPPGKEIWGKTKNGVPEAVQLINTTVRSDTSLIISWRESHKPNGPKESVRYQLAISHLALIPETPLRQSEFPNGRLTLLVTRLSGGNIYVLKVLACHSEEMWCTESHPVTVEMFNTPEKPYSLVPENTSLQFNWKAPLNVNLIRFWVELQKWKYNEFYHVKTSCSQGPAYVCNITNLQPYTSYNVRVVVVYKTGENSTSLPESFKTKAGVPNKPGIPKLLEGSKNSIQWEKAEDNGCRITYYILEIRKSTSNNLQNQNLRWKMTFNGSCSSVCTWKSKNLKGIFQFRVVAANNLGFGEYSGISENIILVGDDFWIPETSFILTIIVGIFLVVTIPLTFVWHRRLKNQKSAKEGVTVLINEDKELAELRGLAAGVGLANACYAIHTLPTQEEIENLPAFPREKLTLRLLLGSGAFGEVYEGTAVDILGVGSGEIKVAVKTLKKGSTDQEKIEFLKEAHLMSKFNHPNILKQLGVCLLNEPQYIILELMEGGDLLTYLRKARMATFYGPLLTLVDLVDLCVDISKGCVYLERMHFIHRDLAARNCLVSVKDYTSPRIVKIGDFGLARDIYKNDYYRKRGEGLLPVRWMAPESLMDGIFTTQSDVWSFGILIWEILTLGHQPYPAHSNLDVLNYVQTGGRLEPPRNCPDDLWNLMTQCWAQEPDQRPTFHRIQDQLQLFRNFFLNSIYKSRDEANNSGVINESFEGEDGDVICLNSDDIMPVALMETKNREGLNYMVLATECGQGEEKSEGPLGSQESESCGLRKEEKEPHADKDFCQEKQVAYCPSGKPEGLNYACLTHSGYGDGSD

For `Cc1[nH]nc(C2CC2)c1-c1ccc2c(NC(=O)C3CC3)noc2c1`, the inhibition is 3% in assay [1]; 2.3% in assay [2]; -0.3% in [3]; 20% in [4]; -2.3% in assay [5]; 0.3% in [6]. Further, the inhibition in assay [7] is 1.3%; in assay [8] it was -2%; in [9] it was -2.3%; in assay [10], -6%; in [11] it was 1%; in [12], -1.7%. For the same compound, the inhibition in assay [13] came to 1.7%; in assay [14] it was 1.7%; in assay [15] it was 31.7%; in [16], 0%; in assay [17], 6%.
`COC(=O)Nc1noc2cc(-c3c(-c4ccccn4)n[nH]c3C)ccc12`: the inhibition was 40.7% in assay [18], 5.7% in assay [19] and 10.7% in assay [20].
`Cc1n[nH]c(C)c1-c1ccc2c(NC(=O)c3ccc(N4CCN(C)CC4)cc3)n[nH]c2c1`: the inhibition in [21] was 5%; in assay [22], -1%; in [23] it was 10%; in assay [24], 6.7%; in assay [25] it was 38%; in [26], -0.3%. The inhibition in assay [27] is 3.3%; with MAP4K2 (Homo sapiens), 66%; in [28], -1.7%; in assay [29], 1.3%; in [30] it was 2%.
